pKi: −log10 of the molar value. Read-outs that look alike come from different tables or passages of the source.
What was measured:
[1] = target: BCL2 D103Y (Homo sapiens, UniProt P10415, D103Y); test: TR-FRET competitive binding assay, BCL2 D103Y; conditions: Ki determined from IC50, read-out: TR_FRET EKI_Bcl2 D103Y
Procedure, shortened: (§1)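 Terbium-labelled N-terminal Halo-fusion BCL2 or BCLXL (E. coli), 0.5 nM, competed against fluorescein-labelled PUMA peptide (2 or 20 nM) for 2 h at 23° C in 50 mM Hepes pH 7.5, 150 mM NaCl, 5% DMSO. TR-FRET 520/495 nm ratio gave IC50 by four-parameter fit; Ki derived from IC50.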

[2] = test system: platelets; test: Platelet depletion in SCID mice; format: in vivo; conditions: 25 mg/kg IV bolus, vs control group; for Platelet loss (%) 6 h: 6 h after dosing; for Platelet loss (%) 24 h: 24 h after dosing
Method: (§2) Pharmacokinetic (PK) and platelet toxicity were investigated in SCID mice. Compounds were administered at 25 mg/kg by IV bolus, and formulated in PEG/Ethanol/NaCl 0.9% (40/10/50 v/v/v).
(§3) Blood samples (3 animals/time point and 3 time points/animal) were collected over 24 h after dosing: 0.05 h, 0.5 h, 1 h, 3 h, 6 h and 24 h for PK and 6 h and 24 h for platelets.
(§4) PK samples were analyzed by liquid chromatography using tandem mass spectrometry detection (LC-MS/MS) and platelet count (109/L) was measured using an hematology analyzer. Percentage of platelet loss was calculated at both time points (T+6 h and 24 h) as compared to a control group of 6 animals. PK parameters (Cinf and AUC24, which correspond to the concentration at the end of bolus administration and the area under curve over 24 h, respectively) were also determined using a non-compartmental analysis.

[3] = target: BCL2 WT (Homo sapiens (Human), UniProt P10415); test: TR-FRET competitive binding assay, BCL2 WT
Procedure, shortened: as §1

[4] = target: BCLXL WT (Homo sapiens (Human), UniProt Q07817); test: TR-FRET competitive binding assay, BCLXL WT; conditions: for pKi: BCLXL WT, Ki determined from IC50, read-out: TR_FRET EKI BclxL; for TR_FRET EKI BCLxL/WT selectivty ratio: ratio Ki BCLxL / Ki BCL2 WT; for TR_FRET EKI BCLxL/WT selectivty: ratio of Ki BCLxL to BCL2 WT
Procedure, shortened: as §1

[5] = test system: KMS-12-PE Bcl-2 G101V; test: In vitro cytotoxicity CellTiter-Glo 48 h, KMS-12-PE Bcl-2 G101V; format: cell-based; conditions: for Ratio (G101V/WT): C50 KMS-12-PE Bcl-2 G101V over C50 KMS-12-PE Bcl-2 WT; for IC50: Homo sapiens, KMS-12-PE, 48 h, CellTiter-Glo, C50 = concentration needed to reach 50% of the cellular viability
Procedure, shortened: (§5)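 KMS-12-PE myeloma cells were lentivirally transduced with wild-type or G101V-mutant Bcl-2 and sorted by TagRFP. They were exposed to compounds as 11-point dose responses for 48 h at 37 °C, 5% CO2. Viability was read by CellTiter-Glo ATP luminescence, and C50 was the concentration giving 50% viability.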

[6] = Pharmacokinetics in SCID mice; format: in vivo; conditions: 25 mg/kg IV bolus; for PK parameters Cinf: concentration at the end of bolus administration; for AUC: mouse, blood, area under curve over 24 h, read-out: PK parameters AUC24
Method: as §2, §3, §4

[7] = test system: BCL2 G101V; test: TR-FRET competitive binding assay, BCL2 G101V; parameters: species or system human; conditions: for TR_FRET EKI G101V/WT selectivty ratio: ratio Ki BCL2 G101V / Ki BCL2 WT; for TR_FRET EKI G101V/WT selectivty: ratio of Ki BCL2 G101V to BCL2 WT
Procedure, shortened: as §1

[8] = target: BCL2 G101V (Homo sapiens, UniProt P10415, G101V); test: TR-FRET competitive binding assay, BCL2 G101V; conditions: BCL2 G101V; Ki determined from IC50; read-out: TR_FRET EKI_Bcl2 G101V
Procedure, shortened: as §1

[9] = test system: KMS-12-PE Bcl-2 WT; test: In vitro cytotoxicity CellTiter-Glo 48 h, KMS-12-PE Bcl-2 WT; format: cell-based; conditions: Homo sapiens, KMS-12-PE, C50 = concentration needed to reach 50% of the cellular viability
Procedure, shortened: as §5

[10] = target: BCL2 D111A (Homo sapiens, UniProt P10415, D111A); test: TR-FRET competitive binding assay, BCL2 D111A; conditions: Ki determined from IC50, read-out: TR_FRET EKI_Bcl2 D111A
Procedure, shortened: as §1

[11] = target: BCL2 F104I (Homo sapiens, UniProt P10415, F104I); test: TR-FRET competitive binding assay, BCL2 F104I; conditions: Ki determined from IC50, read-out: TR_FRET EKI_Bcl2 F104I
Procedure, shortened: as §1

[12] = Ki determined from IC50, read-out: TR_FRET EKI_Bcl2 WT
[13] = Ki determined from IC50, read-out: TR_FRET EKI_Bcl2

BCLXL WT, sequence (Q07817 other isoform, or with tags, fused parts or gaps): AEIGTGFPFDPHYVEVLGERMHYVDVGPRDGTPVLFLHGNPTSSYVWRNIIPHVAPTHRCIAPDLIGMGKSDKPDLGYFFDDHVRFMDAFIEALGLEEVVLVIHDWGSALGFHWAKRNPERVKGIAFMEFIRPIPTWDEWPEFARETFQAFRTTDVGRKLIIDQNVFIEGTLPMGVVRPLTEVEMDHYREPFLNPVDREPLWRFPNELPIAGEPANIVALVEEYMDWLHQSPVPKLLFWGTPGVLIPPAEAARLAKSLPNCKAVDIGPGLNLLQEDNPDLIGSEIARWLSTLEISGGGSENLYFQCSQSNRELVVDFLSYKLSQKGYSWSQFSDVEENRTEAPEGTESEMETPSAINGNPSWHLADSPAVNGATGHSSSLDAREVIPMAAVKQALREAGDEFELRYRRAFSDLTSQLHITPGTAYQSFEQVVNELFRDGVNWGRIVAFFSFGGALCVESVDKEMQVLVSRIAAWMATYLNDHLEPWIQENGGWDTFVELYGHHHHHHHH

Structure (SMILES) | pKi [1] | Platelet loss (%) 6 h [2] [%] | Platelet loss (%) 24 h [2] [%] | pKi [3, 12] | pKi [4] | TR_FRET EKI BCLxL/WT selectivty ratio [4] | PK parameters Cinf [6] [µM] | AUC [6] [µM·h] | TR_FRET EKI G101V/WT selectivty ratio [7] | pKi [8] | pKi [10] | pKi [11] | pKi [3, 13] | TR_FRET EKI BCLxL/WT selectivty [4] | TR_FRET EKI G101V/WT selectivty [7] | Ratio (G101V/WT) [5] | IC50 [5] [µM] | IC50 [9] [µM]
Cc1c(N(C(=O)c2cc(-c3cc4c(cc3C(=O)N3Cc5ccccc5C[C@H]3C)CN(S(=O)(=O)Cc3ccccc3)CC4)n(C)c2C)c2ccc(O)cc2)cc(C#N)n1C [Example 14, 5-[2-benzylsulfonyl-7-[(3R)-3-methyl-3,4-dihydro-1H-isoquinoline-2-carbonyl]-3,4-dihydro-1H-isoquinolin-6-yl]-N-(5-cyano-1,2-dimethyl-pyrrol-3-yl)-N-(4-hydroxyphenyl)-1,2-dimethyl-pyrrole-3-carboxamide] | 8.43 | 16.1 | 12.5 | 9.05 | 7.28 | 58.9 | 13.5 | 18.5 | 5.4 | 8.31 |  |  |  |  |  | 8.86 | 0.0852 | 0.0096
Cc1c(N(C(=O)c2cc(-c3cc4c(cc3C(=O)N3Cc5ccccc5C[C@H]3C)CN(C(=O)Cc3ccc(N5CCN(CC(F)(F)F)CC5)cc3)CC4)n(C)c2C)c2ccc(O)cc2)cc(C#N)n1C [Example 23, N-(5-cyano-1,2-dimethyl-1H-pyrrol-3-yl)-N-(4-hydroxyphenyl)-1,2-dimethyl-5-{7-[(3R)-3-methyl-1,2,3,4-tetrahydroisoquinoline-2-carbonyl]-2-(2-{4-[4-(2,2,2-trifluoroethyl)piperazin-1-yl]phenyl}acetyl)-1,2,3,4-tetrahydroisoquinolin-6-yl}-1H-pyrrole-3-carboxamide] | 8.96 | 19.6 | 12.8 | 9.24 | 7.31 | 83.6 | 6.8 | 10.8 | 6.0 | 8.46 | 8.81 | 7.70 |  |  |  | 9.34 | 0.0898 | 0.0096
Cc1c(N(C(=O)c2cc(-c3cc4c(cc3C(=O)N3Cc5ccccc5C[C@H]3CN(C(C)C)C(C)C)CN(C(=O)Cc3ccc(OCCN5CCOCC5)cc3F)CC4)n(C)c2C)c2ccc(O)cc2)cc(C#N)n1C [Example 152, N-(5-cyano-1,2-dimethylpyrrol-3-yl)-5-(7-{[(3S)-3-[(diisopropylamino)methyl]-3,4-dihydro-1H-isoquinolin-2-yl]carbonyl}-2-(2-{2-fluoro-4-[2-(morpholin-4-yl)ethoxy]phenyl}acetyl)-3,4-dihydro-1H-isoquinolin-6-yl)-N-(4-hydroxyphenyl)-1,2-dimethylpyrrole-3-carboxamide] | 9.39 |  |  | 9.80 | 8.41 | 24.4 |  |  | 6.9 | 8.96 | 9.44 | 9.19 |  |  |  | 3.5238 | 0.037 | 0.0105
Cc1c(C(=O)N(c2ccc(O)cc2)c2cnn(C(F)F)c2)cc(-c2cc3c(cc2C(=O)N2Cc4ccccc4C[C@H]2C)CN(C(=O)Cc2ccc(OCCN4CCOCC4)cc2)CC3)n1C [Example 228, N-[1-(difluoromethyl)pyrazol-4-yl]-5-[2-[2-[4-(2-morpholinoethoxy)phenyl]acetyl]-7-[(3R)-3-methyl-3,4-dihydro-1H-isoquinoline-2-carbonyl]-3,4-dihydro-1H-isoquinolin-6-yl]-N-(4-hydroxyphenyl)-1,2-dimethyl-pyrrole-3-carboxamide] | 9.68 |  |  |  | 7.83 |  |  |  |  | 9.08 | 9.70 | 8.80 | 10.22 | 248.3 | 14 | 11.0 | 0.161 | 0.0146

These reach a higher pKi [1]. Values come first.

pKi [1] | Platelet loss (%) 6 h [2] [%] | Platelet loss (%) 24 h [2] [%] | pKi [3, 12] | pKi [4] | TR_FRET EKI BCLxL/WT selectivty ratio [4] | PK parameters Cinf [6] [µM] | AUC [6] [µM·h] | TR_FRET EKI G101V/WT selectivty ratio [7] | pKi [8] | pKi [10] | pKi [11] | pKi [3, 13] | TR_FRET EKI BCLxL/WT selectivty [4] | TR_FRET EKI G101V/WT selectivty [7] | Structure (SMILES) | Ratio (G101V/WT) [5] | IC50 [5] [µM] | IC50 [9] [µM]
9.74 |  |  | 10.22 | 8.82 | 25.0 |  |  | 4.2 | 9.52 | 9.82 | 9.54 |  |  |  | Cc1c(N(C(=O)c2cc(-c3cc4c(cc3C(=O)N3Cc5ccccc5C[C@H]3CN3CCCCC3)CN(C(=O)Cc3ccc(OCCN5CCOCC5(C)C)cc3)CC4)n(C)c2C)c2ccc(O)cc2)cc(C#N)n1C [Example 148, N-(5-cyano-1,2-dimethylpyrrol-3-yl)-5-[2-(2-{4-[2-(3,3-dimethylmorpholin-4-yl)ethoxy]phenyl}acetyl)-7-{[(3S)-3-(piperidin-1-ylmethyl)-3,4-dihydro-1H-isoquinolin-2-yl]carbonyl}-3,4-dihydro-1H-isoquinolin-6-yl]-N-(4-hydroxyphenyl)-1,2-dimethylpyrrole-3-carboxamide] | 4.9286 | 0.0345 | 0.007
9.92 |  |  | 10.40 | 8.46 | 81.4 |  |  | 7.2 | 9.52 | 9.82 | 9.57 |  |  |  | Cc1c(N(C(=O)c2cc(-c3cc4c(cc3C(=O)N3Cc5ccccc5C[C@H]3CN3CCC(C)(C)C3)CN(C(=O)Cc3ccc(OCCN5CCOCC5)cc3F)CC4)n(C)c2C)c2ccc(O)cc2)cc(C#N)n1C [Example 146, N-(5-cyano-1,2-dimethylpyrrol-3-yl)-5-(7-{[(3S)-3-[(3,3-dimethylpyrrolidin-1-yl)methyl]-3,4-dihydro-1H-isoquinolin-2-yl]carbonyl}-2-(2-{2-fluoro-4-[2-(morpholin-4-yl)ethoxy]phenyl}acetyl)-3,4-dihydro-1H-isoquinolin-6-yl)-N-(4-hydroxyphenyl)-1,2-dimethylpyrrole-3-carboxamide] | 5.8167 | 0.0349 | 0.006
9.96 |  |  |  | 8.74 |  |  |  |  | 9.66 | 10.00 | 9.79 | 10.40 | 45 | 5.5 | Cc1c(N(C(=O)c2cc(-c3cc4c(cc3C(=O)N3Cc5ccccc5C[C@H]3CN3CCCCC3)CN(C(=O)Cc3ccc(OCCN5CCOCC5)cc3F)CC4)n(C)c2C)c2ccc(O)cc2)cc(C#N)n1C [Example 229] | 4.4 | 0.0222 | 0.00502

Source: US20250179047A1, “5-[7-(3,4-DIHYDRO-1H-ISOQUINOLINE-2-CARBONYL)-1,2,3,4 TETRAHYDROISOQUINOLIN-6-YL]-1H-PYRROLE-3-CARBOXAMIDE DERIVATIVES, PHARMACEUTICAL COMPOSITIONS CONTAINING THEM AND THEIR USES AS PRO-APOPTOTIC AGENTS” (LES LABORATOIRES SERVIER, priority 2022, published 2025)
